From patent publication US5482954A, “Signal transduction inhibitor triazole and diazole compounds” (priority 1994, dated 1996)

Key:
OVCAR3 cells [1] = assay: Type IV collagen-stimulated motility; type: cell-based, human; conditions: data not shown
A2058 cells [2] = assay: Cell adhesion to tissue culture plastic; type: cell-based, human; conditions: 0.03-10 μg/mL, 2 to 48 hr preincubation
Procedure: An adhesion assay was developed using tissue culture plastic petri dishes as the substrate. Aliquots of cells treated similarly to those in the cell motility assay were plated in triplicate onto the dishes and incubated for 90 rain at 37° C. Cells which were either poorly adherent or nonadherent were gently washed off with PBS. The remaining cells were stained with Diff Quik™ (from Baxter Scientific Products, McGaw Park. Ill., USA). Adherence was quantitated using laser densitometry and values were calculated as a percentage of the control adherence.
(§1) Cells were preincubated with compound 1 (0.03-10 μg/mL) for periods of 2 to 48 hr prior to the adhesion assay. In addition, compound 1 remained present during the assay. […] Maximal inhibition of adhesion was observed following overnight exposure of the cells to compound 1.

A2058 cells [3] = assay: Clonogenic (crystal violet) proliferation assay; type: cell-based, human; conditions: 0-10 μg/mL, 96 hr
Procedure: (§2) Proliferation: Two independent methods were used to determine the effect of various compounds on cellular proliferation. The first method utilized [^3 H]thymidine labelling and was performed using A2058, 5R, OVCAR3, and MDA-231 cells. Because the potential effect of compound 1 on thymidine metabolism was unknown, a clonogenic assay was also used. This assay utilized crystal violet nuclear staining.
(§3) For the clonogenic assay, aliquots of 50,000 cells per well (24 well plates) were grown under standard tissue culture conditions in the presence of increasing doses or test compound (0-10 μg/mL) or vehicle control. After 96 hr, the cells were gently washed with PBS, fixed, and stained with 0.5% crystal violet nuclear stain in 20% methanol. Excess stain was removed with tap water and bound stain was eluted with an equal volume solution of 01N sodium citrate (pH 4.2) and absolute ethanol. Optical density (O.D.) of eluted crystal violet stain was determined at 540 nm. The results of dose-dependent inhibition of tumor cell proliferation by compound 1 are shown in FIG. 5, in which the data are expressed as percent of untreated control cell proliferation for each cell type. The degree of inhibition varied with the cell type and was maximal (76%) for the A2058 cell line.

MDA-231 cells = assay: Clonogenic (crystal violet) proliferation assay; type: cell-based, human; conditions: 0-10 μg/mL, 96 hr
Procedure: as §2, §3

OVCAR3 cells [4] = assay: Clonogenic (crystal violet) proliferation assay; type: cell-based, human; conditions: 0-10 μg/mL, 96 hr
Procedure: as §2, §3

T24 (EJ) bladder = assay: Growth of tumor cell lines; type: cell-based; conditions: T-24 human bladder cancer with activated H-ras
Procedure: In one study, the cells were continuously exposed to 20 μM compound 1, and growth inhibition was measured. In a second study, cell lines which only grow in suspension were plated in 24 well plates (50,000 cells/well) and were incubated with increasing concentrations of compound 1. After 72 hr in culture, the cells were harvested, centrifuged,resuspended in a small volume. The number of remaining cells and their viability was determined using a hemocytometer.

A2058 cells [5] = assay: Proliferation of A2058 cells (monolayer growth, crystal violet); type: cell-based, human
Procedure: as §3
A2058 human melanoma cells were used to test the effect of compounds 1 and 3-25 on cellular proliferation. The cells were cultured in the presence of the test compounds (10 μM) for 96 hr. fixed and stained with crystal violet as described above. Growth inhibition was determined as a percent of control growth (using either DMSO or PEG-400 as the vehicle) for each compound. Each experiment was run a minimum of three times and the average of the results for each compound is provided in Table H and in FIGS. 20A and 20B.

A2058 cells [6] = assay: AMF-stimulated phosphatidyl inositol metabolism; type: cell-based, human
Procedure: This example illustrates the effect of compound 1 on the generation and release of phosphatidyl inositol from either A2058 cells (stimulated with autocrine motility factor) or CHOm5 cells (stimulated with carbachol).
A2058 cells were incubated with compound 1 (1.0 μg/mL) for 24 hr, then labelled overnight with [^3 H]inositol in serum-free, low inositol IMEM (LI-IMEM). Cells were then harvested, suspended, and incubated in LI-IMEM containing 10 mM LiCl for 30 min. The metabolism assay was initiated by the addition of either AMF or serum-free medium control to aliquots of 100,000 cells. The aliquots were incubated at 37° C. for 15 and 120 min, then washed twice with ice-cold PBS and extracted with chloroform:methanol (1:2). The total inositol phosphates were removed using Dowex anion exchange column chromatography eluted with ammonium formate 1.0 M/formic acid 0.1 M buffer. Total inositol phosphates and unincorporated total intracellular [^3 H]inositol were quantitated by […]. Data are expressed as a ratio of total inositol phosphates to total unincorporated [^3 H]inositol.

CHOm5 cells = assay: Carbachol-stimulated arachidonic acid release; type: cell-based, Chinese hamster
Excerpt: This example illustrates the effect of selected compounds on the release of arachidonic acid from carbachol-stimulated CHOm5 cells. Carbachol is a muscarinic agonist which in the muscarinic receptor transfected CHO cells stimulates the activation of phospholipase A2, resulting in arachidonic acid release and metabolism. Downstream metabolites of arachidonic acid, prostaglandins and leukotrienes are also second messengers.
The effect of compound 1 on arachidonic acid release from CHOm5 cells was determined by incubating the cells to isotopic equilibrium with labelled arachidonic acid, then washing the cells twice with 1 mL of serum-free media supplemented with 20 mM HEPES and 0.2% bovine serum albumin (fatty acid free) to trap the unincorporated labelled arachidonic acid, and then simultaneously adding carbachol (100 μM) and increasing concentrations of 1. After 15 min, the reaction was stopped by removing the incubation media which was then centrifuged at 10,000×g to eliminate any nonadherent cells.

[7] = Side effects in phase I clinical study; type: in vivo, human; conditions: oral, to date
Excerpt: Seven patients with solid tumor metastasis are undergoing treatment via oral administration of compound 1 under the FDA approved phase I clinical study. […] PT# is patient number. Response is the sum of the products of bidirectional measurements.

[8] = system: signal transduction and tumor growth; assay: Biological and biochemical assays, summary; type: cell-based; conditions: summary of all assays
Excerpt: Compound 1 was inhibitory for the biological and biochemical assays.

cell adhesion to laminin = assay: Cell adhesion to laminin; type: cell-based; conditions: data not shown
Procedure: as §1

[9] = system: cell adhesion to fibronectin; assay: Cell adhesion to fibronectin; type: cell-based; conditions: data not shown
Procedure: as §1

## NC(=O)c1nnn(Cc2cc(Cl)c(C(=O)c3ccc(Cl)cc3)c(Cl)c2)c1N [Compound 1]
OVCAR3 cells [1]
  motility due to type IV collagen stimulation: inhibited motility
A2058 cells [2]
  inhibition of cell adhesion: dose-dependent inhibition of cell adhesion
A2058 cells [3]
  maximal inhibition of tumor cell proliferation: 76%
MDA-231 cells
  inhibition of tumor cell proliferation: dose dependent inhibition of tumor cell proliferation
OVCAR3 cells [4]
  inhibition of tumor cell proliferation: dose dependent inhibition of tumor cell proliferation
T24 (EJ) bladder
  inhibition of proliferation: inhibited proliferation
A2058 cells [5]; FIG. 20A, monolayer growth
  dose dependent inhibition of proliferation: Dose dependent inhibition of proliferation
A2058 cells [5]; Homo sapiens, A2058, Table H, 10 μM, 96 hr, read-out: GROWTH (% OF CONTROL)
  activity at 10 µM: 36.4 ± 6%
A2058 cells [6]; 1.0 μg/mL, 24 hr
  inhibition of AMF-stimulated phosphatidyl inositol hydrolysis: significantly inhibited
A2058 cells [6]; Homo sapiens, A2058, 1.0 μg/mL, 24 hr, read-out: inhibition of AMF-stimulated phosphatidyl inositol hydrolysis
  inhibition at 1 µg/mL: ~45%
A2058 cells [6]; treated, unstimulated cells
  effect on unstimulated cells (inositol phosphates): no appreciable effect
CHOm5 cells; Cricetulus griseus, 0.25 h, carbachol 100 μM, 15 min
  IC50: 5.2 ± 0.8 µM
CHOm5 cells; Table K
  Arachidonic Acid Release (% of Control): 50.9 ± 9 % of Control
[7]
  abnormalities of blood cellular composition: no abnormalities of blood cellular composition
  bone marrow depression (white cell counts): do not show any bone marrow depression
  liver or kidney function abnormalities: do not show any liver or kidney function abnormalities
  neurological toxicity, hair loss or electrolyte imbalances: no neurological toxicity, hair loss or electrolyte imbalances
[8]
  inhibition in the biological and biochemical assays: inhibitory
Cell adhesion to laminin
  cell adhesion to laminin: decreased cell adhesion
[9]
  cell adhesion to fibronectin: decreased cell adhesion
